Source: US5593970A, “Heterocyclic anthracycline analogs” (priority 1994, dated 1997)
pIC50: −log10 of the molar value. Structures can show the parent of a compound that is named as a salt. Where two headings read alike, the source gives them in different places.

Assays:
[1] = system: SKOV3; test: Microculture tetrazolium assay; format: cell-based; details: read-out: IC50
[2] = system: P388; test: Soft agar colony formation disk diffusion assay; format: cell-based, murine
Description: (§1) A more elaborate version of this fundamental assay, the soft agar colony formation disk diffusion assay was used. This assay defines the relative activity of one particular drug versus a tumoral cell line type. The effect of the test drug against tumoral cells could be measured by its inhibitory capacity against colony formation after the delivery of the compound, in different concentrations on an filter disk(4). A modified technique of this assay was used in order to investigate the antiproliferative activity of candidate compounds. Tumoral cells from solid tumors and ascitic lines were plated separately in a two layer agar matrix. Cell lines to be tested were suspended in an upper layer of 0.4% Noble agar (Difco#00142-01) in RPMI-1066 (Gibco#3201875) at a yield varying between 10^4 to 2×10^5 cells per 60 mm Petri dish. Plating efficiency was determined for each line in order to achieve an optimal number of colonies per dish. Plates were examined before drug administration to confirm a uniform dispersion of single cells. The bottom layer consisted of 0.8% Noble agar, 0.8% Tryptic Soy Broth (difco#0037001)in CMRL-1066/Fischer's. The bottom layers were used within 2 and 9 days of preparation. Plated dishes (bottom layer of agar, upper layer of cells and administered drug were incubated in humidified atmosphere at 37° C., 5% CO2 for 10-20 days depending upon the time necessary to observe adequate colonies (defined as a cell aggregate of more than 50 cells) both control and drug inhibited. Drugs were administered on a paper filter disk (Whatman No. 1) of 6.5 mm diameter placed on the upper layer at 1/3 distance from the edge of the dish. The anti-clonogenic activity of the compounds was measured as the zone of inhibition from the disk edge to the most proximal colonies. This zone of inhibition was checked on an inverted microscope (40×) and was measured with a micrometer mounted in the eyepiece. The ocular micrometer was calibrated with a stage micrometer set for a particular combination of ocular and objective lenses. […] We made a modification of the initial technique by not plating a solid tumor and a leukemia simultaneously in the same Petri dish. Anti-clonogenic tests performed on leukemia cell line have helped in the discovery of the majority of current clinically used cytostatic drugs. Our tests on solid tumor lines (animal or human) may help define active compounds with solid tumor specificity. […] Murine tumors were maintained IN VIVO in order to diminish the selection of subpopulations of cells normally present in the heterogenous IN VIVO tumor. The actual drug sensitivity assay was done IN VITRO. For these experiments cells from freshly excised tumors or from ascitic fluids were maintained in RPMI-1066. Both compounds were dissolved in DMSO (1 mg/100 ul) and brought to final volume (250 ul) with Millipore deionized sterile water. Further dilutions were made with […] volume of 25 ul of freshly prepared solution was placed on the filter disk and allowed to dry.

[3] = system: LL; test: Soft agar colony formation disk diffusion assay; format: cell-based, murine
Description: as §1

[4] = system: B16; test: Soft agar colony formation disk diffusion assay; format: cell-based, murine
Description: as §1

[5] = system: M5076; test: Soft agar colony formation disk diffusion assay; format: cell-based, murine
Description: as §1

[6] = system: P388/ADR; test: Soft agar colony formation disk diffusion assay; format: cell-based, murine
Description: as §1

[7] = system: LOX; test: Microculture tetrazolium assay; format: cell-based; details: read-out: IC50
[8] = system: HT29; test: Microculture tetrazolium assay; format: cell-based; details: read-out: IC50
[9] = system: MATB/ADR; test: Soft agar colony formation disk diffusion assay; format: cell-based, rat
In short: (§2)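 Cells from solid tumours or ascitic fluid (murine lines maintained in vivo, assayed in vitro) were suspended in 0.4% Noble agar over a 0.8% agar base. Compound dissolved in DMSO was applied on a 6.5 mm paper disk. After 10-20 days at 37° C., the inhibition zone from disk edge to nearest colony was measured microscopically.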

[10] = system: MATB.WT; test: Soft agar colony formation disk diffusion assay; format: cell-based, rat
In short: as §2

[11] = system: T47D; test: Microculture tetrazolium assay; format: cell-based; details: read-out: IC50
[12] = system: tumor cell lines; test: NCI sulforhodamine B assay, all cell lines; details: Homo sapiens
[13] = system: NSC Lung; test: NCI assay, average per cancer type; details: Homo sapiens
[14] = system: Renal; test: NCI assay, average per cancer type; details: Homo sapiens
[15] = system: Ovarian; test: NCI assay, average per cancer type; details: Homo sapiens
[16] = 48 h, read-out: Average LOG10 LC50

Compound	pIC50 ([1]; SKOV3)	zone of inhibition ([2]; 10 μg/DISK) [Zone Units]	zone of inhibition ([2]; 100 μg/DISK) [Zone Units]	zone of inhibition ([3]; 100 μg/DISK) [Zone Units]	zone of inhibition ([4]; 10 μg/DISK) [Zone Units]	zone of inhibition ([4]; 100 μg/DISK) [Zone Units]	zone of inhibition ([5]; 10 μg/DISK) [Zone Units]	zone of inhibition ([5]; 100 μg/DISK) [Zone Units]	zone of inhibition ([6]; 10 μg/DISK) [Zone Units]	zone of inhibition ([6]; 100 μg/DISK) [Zone Units]	pIC50 [7]	pIC50 ([8]; HT29)	zone of inhibition ([9]; 10 μg/DISK) [Zone Units]	zone of inhibition ([9]; 100 μg/DISK) [Zone Units]	zone of inhibition ([10]; 10 μg/DISK) [Zone Units]	zone of inhibition ([10]; 100 μg/DISK) [Zone Units]	pIC50 [11]	also measured
3-(2-hydroxy)aceto-6-hydroxy-1,2,3,4-tetrahydro-(2-oxygen)naphthacene-5,12-dione and 3-(2-hydroxy)aceto-11-hydroxy-1,2,3,4-tetrahydro-(2-oxygen)naphthacene-5,12-dione [BCH-694]	5.09	67.1 ± 8.6	115.9 ± 94.8	30.5 ± 8.6	0	128.0 ± 26.0	27.4 ± 4.3	137.2 ± 99.2	6.1 ± 8.6	39.6 ± 12.9	4.82	4.87	27.4 ± 4.3	213.5 ± 43.1	76.2 ± 2.5	207.0 ± 33.9	4.95	
3-carbomethoxy-6-hydroxy-1,2,3,4-tetrahydro-(2-sulfur)naphthacene-5,12-dione and 3-carbomethoxy-11-hydroxy-1,2,3,4-tetrahydro(2-sulfur)naphthacene-5,12-dione [BCH-693]	4.38	120.0 ± 0.0	400.0	45.7 ± 21.5	0	27.4 ± 4.3	27.4 ± 4.3	51.8 ± 12.9	20.0 ± 0.0	76.5 ± 21.9	4.32	4.72	0	67.1 ± 8.6	0	42.7 ± 8.8	4.79	
COC(=O)[C@@H]1CC2=C(C(=O)c3c(c(OC)c4ccccc4c3O)C2=O)[C@@H](O[C@H]2C[C@H](NC(=O)C(F)(F)F)[C@H](O)[C@H](C)O2)O1 (mixture of isomers) [BCH-674, (1'S,1S,3R) and 1'S,1R,3S) Methyl(11-hydroxy-6-methoxy-1-[2',3',6'-trideoxy-3-trifluoroacetamido-4'-hydroxy-L-lyxohexopyranose]-5,12-dioxo-3,4,5,12-tetrahydroanthra-ceno[2,3-c]pyran-3-yl) formate]		30.5 ± 25.8	137.2 ± 38.8	115.9 ± 8.0	91.5 ± 60.3	122.0 ± 86.2			0	150.0 ± 8.0	5.69		24.4 ± 8.6	213.5 ± 25.8	30.5 ± 13.0	198.2 ± 21.5		pIC50 ([1]; Homo sapiens, SK-OV-3, SKOV3): 5.13; zone of inhibition ([3]; 10 μg/DISK): 54.9 ± 8.6 Zone Units; CC50 ([12]; 48 h, read-out: Log10 LC50, Mean / MG-MID, all cell lines (converted)): 67.6 µM; IC100 ([12]; 48 h, read-out: Log10 TGI, Mean / MG-MID, all cell lines): 30.2 µM; GI50 ([12]; read-out: Log10 GI50, Mean / MG-MID, all cell lines (converted)): 12.3 µM; pIC50 ([8]; Homo sapiens, HT-29, HT29): 5.18; CC50 [13, 16]: 69.2 µM; GI50 ([13]; read-out: Average LOG10 GI50): 9.33 µM; CC50 [14, 16]: 57.5 µM; GI50 ([14]; read-out: Average LOG10 GI50): 8.91 µM; CC50 [15, 16]: 83.2 µM; GI50 ([15]; read-out: Average LOG10 GI50): 15.8 µM; pIC50 ([11]; Homo sapiens): 5.38
CC(=O)Oc1c2c(c(O)c3ccccc13)C(=O)C1=C(CC(C(C)=O)OC1)C2=O (stereo not drawn) [BCH-721]	4.25	45.5 ± 21.9	137.0 ± 21.2		76.0 ± 21.2	198.0 ± 21.2	78.0 ± 18.3	259.0 ± 21.2	21.0 ± 21.2	183.0 ± 86.2	4.60	4.63	45.5 ± 21.9	137.0 ± 21.2	33.0 ± 4.2	143.0 ± 12.7	4.32	
